{
  "source": "patent US5763430A",
  "about": "“Method of treating a viral infection by administering a steroid compound” (priority 1995, dated 1998)",
  "key": {"HIV clinical isolate": {"test_system": "HIV clinical isolate", "assay": "inhibition of HIV replication in PHA-stimulated lymphocytes (HIV P-24 antigen Elisa)", "assay_type": "cell-based", "conditions": "20 μM", "excerpt": "(§1) Results are tabulated below."}, "human lymphocytes": {"test_system": "human lymphocytes", "assay": "inhibition of mitogen (PHA)-stimulated growth of human T-cells", "conditions": "Homo sapiens, Lymphocyte, read-out: inhibition of blast transformation", "experimental": "Specific assays were used to identify steroids with a particular biological activity, such as an assay for inhibition of mitogen-stimulated growth of human T-cells.\nHuman heparinized blood, freshly collected, was introduced into tissue culture flasks containing 10 μg/ml phytohaemagglutinin (PHA) in RPMI medium with 10% FCS. Various purified steroids were introduced subsequently at concentrations of 1, 5, and 10 μg/ml. Cultures were incubated for 72 hours, after which time colcemid was added to 1 μg/ml. Cultures were maintained for an additional 2 hours, and cells collected. Miotic figures were estimated using standard cytochemical techniques, following Giemsa staining."}, "B16 melanoma": {"test_system": "B16 melanoma", "assay": "suppression of growth of B16 melanoma in C57B mice", "assay_type": "in vivo, mouse", "conditions": "10 mg/kg every 3 days alone, FIG. 12", "description": "The growth of B16 melanoma in C57B mice is dependent upon neovascularization.\nUsing the growth of B16 melanoma cells in C57B mice, a recognized model for the evaluation of inhibitors of angiogenesis on the growth of cancers, the effects of subcutaneous, intraperitoneal and oral administration of squalamine were evaluated.\nBased on the idea that tumor growth involves both the clonal expansion of a malignant cell along with the development of a supporting vascular supply, a combination of compound 1436 with squalamine was tested to determine whether it would achieve a synergistic effect on solid tumor growth. This concept was evaluated in the B16 melanoma model.\nAnimals were implanted with B16 melanoma followed by treatment with compound 1436 or 1256 administered in a combined schedule or separately. […] Thus, a combination of these two compounds achieves a therapeutic benefit in tumors dependent on neovascularization that may prevent metastatic spread."}, "[1]": {"test_system": "stage 59-60 Xenopus tadpole", "conditions": "10 μg/mL, Table II"}, "[2]": {"test_system": "heart of a juvenile Xenopus laevis frog", "assay": "persistence of beating of isolated frog heart", "conditions": "10 μg/ml", "description": "To determine if compound 1436 has such utility, the following experiment was performed. The heart of a juvenile Xenopus laevis frog was dissected from the living animal. The heart was placed into a Petri dish containing Krebs-Ringer buffer with adrenaline 50 μg/ml, and examined with the naked eye. At room temperature, the heart continued beating in a coordinated fashion (atrial beat followed by ventricular beat) for about one hour. In the presence of 10 μg/ml of compound 1436, spontaneous beating persisted up to 24 hours."}, "[3]": {"test_system": "stage 59-60 Xenopus tadpole", "assay": "Xenopus tadpole assay", "conditions": "10 μg/ml"}, "[4]": {"test_system": "human coronary artery smooth muscle", "assay": "proliferation of human coronary artery smooth muscle in vitro", "assay_type": "cell-based", "conditions": "FIG. 15", "excerpt": "Aminosterols of the invention may also have utility in inhibiting the growth factor mediated proliferation of smooth muscle within the artery. Following coronary angioplasty, reocclusion commonly occurs, secondary to reparative proliferation of the vascular smooth muscle within the wall of the surgically manipulated blood vessel. This process generally takes place over the course of 7-10 days. To evaluate whether an agent could prevent the growth factor mediated proliferation of smooth muscle within the artery, compound 1436 was evaluated in vitro for its effect on the proliferation of human coronary artery smooth muscle. Results for compound 1436 are shown in FIG. 13, and those for squalamine are shown in FIG. 14, with FIG. 15 being a composite logarithmic plot."}, "[5]": {"test_system": "chick embryo vitelline capillaries", "assay": "chick embryo vitelline capillary regression assay", "assay_type": "in vivo", "description": "Using the chick embryo vitelline capillaries assay, compounds were tested for their ability to induce capillary regression. Each compound was applied in 0.1 ml of 15% Ficol 400 and PBS onto the embryo, and vascular regression was assessed after 60 minutes.\nThe 3-day chick embryo consists of an embryonic disc from which numerous vessels emerge and return, forming a \"FIG. 8\"-shaped structure--the embryo in the center with vascular loops extending outward over both poles. […] Following a lag period of around 15 minutes, the constriction of continuity between capillary and secondary vessels, generally on the \"venous\" side, was observed. Continued pulsatile blood flow progressed, resulting in a \"swelling\" of the blind tube, followed by a pinching off of the remaining connection and formation of an enclosed vascular sac resembling a \"blood island.\" This process progressed until only the largest vessels remained intact."}, "[6]": {"test_system": "Human colon carcinoma SW948", "assay": "growth inhibition in vitro", "assay_type": "cell-based", "conditions": "SW948, 10 μg/ml", "excerpt": "(§2) As set forth in Table 7 below, all malignant tumors evaluated in tissue culture, endothelial cells and vascular smooth muscle cells were sensitive to inhibition. Thus, compound 1436 has application in the control of growth factor dependent proliferation of many types of tissue."}, "Murine B16 melanoma": {"test_system": "Murine B16 melanoma", "assay": "growth inhibition in vitro", "assay_type": "cell-based", "conditions": "Murine B16 melanoma, 10 μg/ml", "excerpt": "as §2"}, "[7]": {"test_system": "Human microvascular endothelial cells", "assay": "growth inhibition in vitro", "assay_type": "cell-based", "conditions": "10 μg/ml", "excerpt": "as §2"}, "[8]": {"test_system": "Human coronary artery smooth muscle cells", "assay": "growth inhibition in vitro", "assay_type": "cell-based", "conditions": "10 μg/ml", "excerpt": "as §2"}, "[9]": {"test_system": "bovine pulmonary endothelial cells", "assay": "growth inhibition in vitro", "assay_type": "cell-based", "conditions": "10 μg/ml", "excerpt": "as §2"}, "[10]": {"test_system": "human umbilical venous endothelial cells", "assay": "growth inhibition in vitro", "assay_type": "cell-based", "conditions": "10 μg/ml", "excerpt": "as §2"}, "[11]": {"test_system": "Human colon carcinoma HT29", "assay": "growth inhibition in vitro", "assay_type": "cell-based", "conditions": "HT29, 10 μg/ml", "excerpt": "as §2"}, "Lewis lung carcinoma": {"test_system": "Lewis lung carcinoma", "assay": "growth inhibition in vitro", "assay_type": "cell-based", "conditions": "10 μg/ml", "excerpt": "as §2"}, "Murine L1210 leukemia": {"test_system": "Murine L1210 leukemia", "assay": "growth inhibition in vitro", "assay_type": "cell-based", "conditions": "10 μg/ml", "excerpt": "as §2"}, "Human melanoma WM 1617": {"test_system": "Human melanoma WM 1617", "assay": "growth inhibition in vitro", "assay_type": "cell-based", "conditions": "WM 1617, 10 μg/ml", "excerpt": "as §2"}, "rabbit NHE3": {"molecular_target": "rabbit NHE3 (Oryctolagus cuniculus, UniProt P26432)", "sequence (P26432 30-832)": "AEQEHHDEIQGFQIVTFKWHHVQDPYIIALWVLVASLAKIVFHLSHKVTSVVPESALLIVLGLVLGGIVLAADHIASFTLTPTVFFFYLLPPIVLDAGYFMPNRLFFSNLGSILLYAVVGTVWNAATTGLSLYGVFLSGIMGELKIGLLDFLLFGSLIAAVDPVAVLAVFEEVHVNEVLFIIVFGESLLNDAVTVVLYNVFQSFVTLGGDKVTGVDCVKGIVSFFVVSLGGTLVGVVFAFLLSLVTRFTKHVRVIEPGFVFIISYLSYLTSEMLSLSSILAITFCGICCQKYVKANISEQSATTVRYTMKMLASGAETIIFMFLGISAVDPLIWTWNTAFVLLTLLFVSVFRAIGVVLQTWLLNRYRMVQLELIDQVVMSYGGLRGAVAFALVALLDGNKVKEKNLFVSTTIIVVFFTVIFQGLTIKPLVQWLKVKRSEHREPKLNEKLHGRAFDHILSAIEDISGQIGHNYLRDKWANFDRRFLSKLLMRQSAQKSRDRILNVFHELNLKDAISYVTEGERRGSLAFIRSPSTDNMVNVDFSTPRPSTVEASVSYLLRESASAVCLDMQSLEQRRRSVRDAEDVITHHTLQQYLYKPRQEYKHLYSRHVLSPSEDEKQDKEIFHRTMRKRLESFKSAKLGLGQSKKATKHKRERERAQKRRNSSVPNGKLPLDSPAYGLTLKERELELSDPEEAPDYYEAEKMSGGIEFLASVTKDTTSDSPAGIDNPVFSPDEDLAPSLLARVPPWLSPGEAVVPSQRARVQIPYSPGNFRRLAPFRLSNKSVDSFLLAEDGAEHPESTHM", "conditions": "10 μg/ml, acid preloaded 40 mM NH4Cl, FIG. 10", "experimental": "Internal pH was measured either following acid loading or in the absence of an acid-loading challenge, with the results shown in FIGS. 1A and 1B.\nSpecifically, PS120 fibroblasts transfected with rabbit NHE3 were grown in supplemented Dulbecco's-modified Eagle's medium as described by Levine et al., J. Biol. Chem. 268, 1993, 25527-25535. […] For cells not acid-preloaded, the actual internal pH value was monitored as a function of time following addition of squalamine, with the results depicted in FIG. 1B.\nPS120 fibroblasts transfected with rabbit NHE3 were grown and acid preloaded by exposure to 40 mM NH4 Cl as described above in conjunction with FIGS. 1A and 1B. Internal cellular pH changes expressed as the rate of pH recovery as a function of restored extracellular sodium ion concentration following exposure to 10 μg/ml of the compound were assayed with the fluorescent dye BCECF-AM as described above."}, "[12]": {"test_system": "Human ovarian carcinoma SKOV3", "assay": "growth inhibition in vitro", "assay_type": "cell-based", "conditions": "SKOV3, 10 μg/ml", "description": "as §2\nUsing the assay described above, the anticancer effects of compound 1437 against several cancer lines was assessed."}, "[13]": {"assay": "viability of lymphocytes in HIV test", "assay_type": "cell-based", "conditions": "human", "excerpt": "as §1"}, "[14]": {"assay": "effect on fasting blood glucose in mice", "assay_type": "in vivo, mouse (male CD-1)", "conditions": "i.v.", "description": "To study the effect of steroid administrator or the NHE responsible for secretion of insulin, several of the aminosterols from shark liver were administered to fasting mice. Male CD-1 mice were assigned to one of four treatment groups. Whole blood glucose was tested using glucometer (Lifescan Glucometer II and One Touch test strips). Statistical analysis was via one-way analysis of variance (ANOVA) followed by subsequent Bonferonni's t-test."}, "[15]": {"assay": "effect on growth and weight gain of growing mice", "assay_type": "in vivo, mouse (C57B)", "description": "Animals were dosed QTD (i.p.) starting on Day 1. […] Animals receiving 5 mg/kg QTD experienced about a 50% reduction in growth, compared to untreated controls, while animals receiving 1 mg/kg QTD were affected by about 10%. […] They appeared very much like hypophysectamized animals might appear."}, "[16]": {"assay": "effect on arterial resistance in the rat", "assay_type": "in vivo", "conditions": "5 mg/kg i.v.", "description": "A 200-g rat was catheterized in the right carotid artery, and the compound was introduced over a ten-second period to a total dosage of 5 mg/kg. Within 30 seconds, the mean arterial pressure had fallen from about 100 mm Hg to about 70 mm Hg, with a marked reduction in pulse pressure from about 40 mm to about 10 mm. […] If cardiac output was basically unaffected, reduction in blood pressure would have resulted principally from a reduction in system resistance.\nAt that time, 40 μg of noradrenaline was introduced."}, "[17]": {"test_system": "L1210 lymphoblastic leukemia cells", "assay": "mouse model of leukemia", "assay_type": "in vivo", "conditions": "highest dose (10 mg/kg every 3 days ip), FIG. 11", "text": "C57B mice were inoculated with L1210 lymphoblastic leukemia cells at an inoculum that causes leukemia in 100% of animals."}, "human melanoma": {"test_system": "human melanoma", "assay": "effect on growth of human melanoma over time / mode of cell death", "assay_type": "cell-based"}},
  "data": [
    {"smiles": "CC(C)[C@@H](CC[C@@H](C)[C@H]1CC[C@H]2[C@@H]3[C@H](O)C[C@H]4C[C@@H](NCCCNCCCCNCCCN)CC[C@]4(C)[C@H]3CC[C@]12C)OS(=O)(=O)O", "note": "[Compound 1436]", "values": [
      {"measurement": "P-24 Elisa", "setting": "HIV clinical isolate", "value": 9},
      {"measurement": "inhibition at 10 µg/mL", "setting": "human lymphocytes", "value": "> 75", "unit": "%"},
      {"measurement": "impact on tumor volume", "setting": "B16 melanoma", "value": "no significant impact on tumor volume"},
      {"measurement": "Tadpole M (merarocytes)", "setting": "[1]", "value": "+"},
      {"measurement": "atrial pacemaker and conduction", "setting": "[2]", "value": "remained vigorous"},
      {"measurement": "time to death of tadpole", "setting": "[3]", "value": "about 2 hours"},
      {"measurement": "tadpole response", "setting": "[3]; about 1 hour", "value": "Gradual reduction in overall activity. Heart beat remained strong, suggesting nervous system depression. Melanocytes over head and tail began to swell, first exhibiting visibly distinct nuclei, followed by rupture into fragments"},
      {"measurement": "growth of human coronary artery smooth muscle", "setting": "[4]", "value": "suppress in vitro the growth"},
      {"measurement": "vitelline capillary regression, potency in words", "setting": "[5]", "value": "about the same potency as squalamine"},
      {"measurement": "cancer cells inhibited in vitro", "setting": "[6]", "value": "INHIBITED"},
      {"measurement": "cancer cells inhibited in vitro", "setting": "Murine B16 melanoma", "value": "INHIBITED"},
      {"measurement": "non-transformed cells inhibited in vitro", "setting": "[7]", "value": "INHIBITED"},
      {"measurement": "non-transformed cells inhibited in vitro", "setting": "[8]", "value": "INHIBITED"},
      {"measurement": "non-transformed cells inhibited in vitro", "setting": "[9]", "value": "INHIBITED"},
      {"measurement": "non-transformed cells inhibited in vitro", "setting": "[10]", "value": "INHIBITED"},
      {"measurement": "cancer cells inhibited in vitro", "setting": "[11]", "value": "INHIBITED"},
      {"measurement": "cancer cells inhibited in vitro", "setting": "Lewis lung carcinoma", "value": "INHIBITED"},
      {"measurement": "cancer cells inhibited in vitro", "setting": "Murine L1210 leukemia", "value": "INHIBITED"},
      {"measurement": "cancer cells inhibited in vitro", "setting": "Human melanoma WM 1617", "value": "INHIBITED"},
      {"measurement": "inhibition of rabbit NHE3 (rate of pH recovery)", "setting": "rabbit NHE3", "value": "inhibit rabbit NHE3"},
      {"measurement": "cancer cells inhibited in vitro", "setting": "[12]", "value": "INHIBITED"},
      {"measurement": "viability at 168 h, 0.5 µM", "setting": "[13]; 0.5 μM", "value": 91, "unit": "%"},
      {"measurement": "viability at 168 h, 10 µM", "setting": "[13]; 10 μM", "value": 95, "unit": "%"},
      {"measurement": "viability at 168 h", "setting": "[13]; 10 μg/ml, read-out: lymphocyte viability", "value": 95, "unit": "%"},
      {"measurement": "viability at 168 h, 20 µM", "setting": "[13]; 20 μM", "value": 90.1, "unit": "%"},
      {"measurement": "hyperglycemia", "setting": "[14]", "value": "caused hyperglycemia in mice"},
      {"measurement": "reduction in growth", "setting": "[15]; 1 mg/kg QTD i.p.", "value": "about 10%"},
      {"measurement": "suppression of growth of mice", "setting": "[15]; 10 mg/kg QTD i.p., after 6 doses, about 1 month", "value": "growth was almost completely inhibited"},
      {"measurement": "apparent health of treated animals", "setting": "[15]; mouse, in vivo", "value": "all were active, normally proportioned, not-cachectic, and in excellent apparent clinical health"},
      {"measurement": "duration of effect followed without significant change", "setting": "[16]", "value": 30, "unit": "min"},
      {"measurement": "heart rate", "setting": "[16]", "value": "no significant increase in heart rate"},
      {"measurement": "survival of mice bearing L1210 leukemia", "setting": "[17]", "value": "significant prolongation of life"},
      {"measurement": "mode of cell death", "setting": "human melanoma", "value": "same highly selective mechanism of killing"}
    ]}
  ]
}
